The results in this text go back to patent US8273718B2, “Composition for prevention or treatment of bone metabolism disorder comprising D-pinitol as an active ingredient” (Solgent Co., priority 2007, dated 2012).

Data set [1] has as its system Raw264.7 cells. Description: Osteoclastogenesis of Raw264.7 cells, TRAP staining. It counts as cell-based. As for the experimental part:
Raw264.7 cells were cultured in α-MEM (α-minimal essential medium) containing 10% FBS (fetal bovine serum). In the experiment of examining osteoclastogenesis, cells were adjusted to 2.0×10^3 cells/200 μl on 96-well plate and incubated with 200 ng/ml of sRANKL. TRAP (tartrate resistant acid phophatase) staining and TRAP solution assay were carried out at forth day after culturing cells for 3 days with treatment of D-pinitol at concentrations of 1, 3.5, 7, 12.5, 25 and 50 mM respectively. Cells were fixed for TRAP staining and TRAP solution assay. TARP positive multinuclear (more than 3 nuclei) cells were counted as an osteoclast-like cell. Cells were observed using Leica DM IRM microscope. For cytochemical staining of TRAP positive cell, medium was removed. After that, 100 μl of 10% formalin was added to cells and incubated for 10 min at room temperature. 100 μl of methanol/acetone was added and incubated for 1 min at room temperature. Cells were stained with 10 ml of TRAP buffer (Tris-HCl, pH 4.5, EDTA), naphthol AS phosphate (substrate, Sigma #N-4875) and 5 mg of Fast Red Violet dye (Sigma, F-1625). 1 mg of naphthol AS phosphate dissolved in […] of N, N-dimethyl formide (DMF, Sigma #319937) was used. The reaction was performed for 10-30 min and then red color was observed. Where red color is clearly observed, it was washed with flowing water and dried. […] Raw264.7 cell line was treated with 200 ng/ml of RankL for 4 days. […] To quantitate inhibitory activity of D-pinitol in osteoclastogenesis of Raw264.7 cells, multinucleate cell number was measured via TRAP staining according to various treatment concentration of D-pinitol. […] Therefore, it could be understood that D-pinitol was a substance to inhibit osteoclastogenesis of Raw264.7 cell. D-pinitol inhibited osteoclastogenesis almost 100% at a concentration of 50 mM.

Data set [2] concerns Raw264.7 cells. Description: Cytotoxicity of D-pinitol on Raw264.7 cells (cell number count). It counts as cell-based. The note with it: 0-50 mM, cell number counted for 3 days at 24 hrs intervals; up to maximum 50 mM. As for the experimental part: To verify the cytotoxicity of D-pinitol to Raw264.7 cell, Raw264.7 cells were grown on 96-well plate until 0.5×10^3 cells/200 μl. Cells were cultured for 3 days while treating with D-pinitol at concentrations of 1, 3.5, 7, 12.5, 25 and 50 mM respectively. Cell number increased during 3 days of culture was counted to determine the cytotoxicity of added compounds.
The present inventors examined the cytotoxicity of D-pinitol at various concentrations. Influence of D-pinitol to cell proliferation was examined by treating Raw264.7 cells with various concentrations of D-pinitol. Osteoclast progenitor cell line, Raw264.7 cells were cultured and treated with D-pinitol in a range of 0-50 mM concentration. The number of survived cells was counted for 3 days at 24 hrs intervals.

The subject of data set [3] is bone marrow-derived osteoclast. Description: Differentiation of bone marrow-derived osteoclast, TRAP solution assay. The class given is cell-based, mouse. The protocol:
TRAP solution assay of TRAP positive cells were carried out according to the following method. Medium was removed, 100 μl of 10% formalin was added and incubated for 10 min at room temperature. After 100 μl of methanol/acetone was added, incubated for 1 min at room temperature, and then dried. TRAP substrate solution comprising a tablet of pNPP (p-nitrophenylphosphate) dissolved in 20 ml of TRAP buffer (pH 5.2) was added into and incubated for 20-30 min at 37° C. 100 μl of TRAP substrate solution was transferred to a new 96-well plate in which 50 μl of 1N NaOH was contained. Finally, OD (optical density) value was measured at 405 nm. To extract mouse bone marrow cells, thighbone and shinbone of male C57BL/6 mouse at 3-4 weeks of age were aseptically enucleated and their soft tissues were eliminated. Both end of long bone was cut in extracted bone tissues and then bone marrow cells were collected by injecting α-MEM/10% FBS into bone marrow cavity at one end using a 26G injection syringe. Collected bone marrow cells were subjected to 5 ng/ml of M-CSF and incubated for 16 hrs. Unattached cells on plate bottom were harvested. […] To determine inhibitory effect of D-pinitol on osteoclastogenesis, osteoclast derived from bone marrow primary cells was analyzed using TRAP solution assay.

Data set [4] relates to bone marrow-derived osteoclast. Description: Differentiation of bone marrow-derived osteoclast, TRAP staining. The class given is cell-based, mouse. As for the experimental part: For cytochemical staining of TRAP positive cell, medium was removed. After that, 100 μl of 10% formalin was added to cells and incubated for 10 min at room temperature. 100 μl of methanol/acetone was added and incubated for 1 min at room temperature. Cells were stained with 10 ml of TRAP buffer (Tris-HCl, pH 4.5, EDTA), naphthol AS phosphate (substrate, Sigma #N-4875) and 5 mg of Fast Red Violet dye (Sigma, F-1625). 1 mg of naphthol AS phosphate dissolved in […] of N, N-dimethyl formide (DMF, Sigma #319937) was used. The reaction was performed for 10-30 min and then red color was observed. Where red color is clearly observed, it was washed with flowing water and dried. […] To extract mouse bone marrow cells, thighbone and shinbone of male C57BL/6 mouse at 3-4 weeks of age were aseptically enucleated and their soft tissues were eliminated. Both end of long bone was cut in extracted bone tissues and then bone marrow cells were collected by injecting α-MEM/10% FBS into bone marrow cavity at one end using a 26G injection syringe. Collected bone marrow cells were subjected to 5 ng/ml of M-CSF and incubated for 16 hrs. Unattached cells on plate bottom were harvested. For the induction of the differentiation of bone marrow-derived osteoclast, bone marrow cells of 1.0×10^5 cells per well were cultured with α-MEM/10% FBS in the presence of 200 ng/ml of sRANKL and 50 ng/ml of M-CSF. D-pinitol was added to media at various concentrations during culture. Three experiments were carried out at each concentration and media were replaced at third day after grown in complete media containing sRANKL, M-CSF and D-pinitol. […] To investigate the effect of D-pinitol on the osteoclast differentiation from bone marrow-derived monocyte, hematopoietic stem cells were extracted from bone marrow and activated for 1 day by M-CSF (5 ng/ml), resulting in induction of the differentiation into mononuclear cells. […] To quantitate the effect of D-pinitol in osteoclatogenesis of bone marrow-derived monocyte, osteoclast cell number within sample was measured using TRAP staining. […]

In data set [5] the test system is bone marrow-derived osteoclast. Description: Osteoclast differentiation in respective stages of osteoclastogenesis. The class given is cell-based, mouse. The note with it: from 2 days after culture, not less than 25 mM. As for the experimental part:
To examine the effect of D-pinitol on osteoclast at each stage of culturing, D-pinitol was added to the culture media of osteoclast with various concentrations. D-pinitol-treated osteoclast was separated at each cultured time and then amount of differentiated osteoclast was analyzed using TRAP solution assay. To analyze the effect of D-pinitol on respective stages of differentiation of bone marrow-derived osteoclast, the differentiation state of osteoclast, which has been cultured in the presence of various concentration of D-pinitol, was estimated in a time-dependent course. […] It could be also understood that D-pinitol affects in the cell-fusion stage of the osteoclastogenesis.

In data set [6] the test system is co-culture of osteoblast and bone marrow-derived osteoclast. Description: Osteoclastogenesis in co-culture of osteoblast and bone marrow cells, TRAP staining. It counts as cell-based, mouse. The protocol:
To prepare a primary osteoblast of mice, frontal bone and parietal bone of fetal mice at 1 day of age were aseptically enucleated. After washing enucleated bone tissue with PBS solution, it was subsequently treated with mixed-enzyme solution (0.2% collagenase and 0.1% dispase) 6 times at 20 min intervals. Cells having the property of osteoblast were harvested and then washed with culture solution. Washed cells were cultured in α-MEM containing 10% serum for 3 days and used as a primary osteoblast. Co-culture was carried out in a manner that 1.0×10^4 cells/200 μl of osteoblast and 1.0×10^5 cells of bone marrow cells were cultured on 96-well plate with vitamin D3 (10^−6M) and prostagrandin E2 (PGE2, 10^−8M) for 5 days. After culturing, TRAP staining was performed. Osteoblast was extracted from mouse skull and then co-cultured with hematopoietic stem cells of bone marrow in order to induce the differentiation of osteoclast. The effect of D-pinitol on osteoclastogenesis was investigated by treating cells with D-pinitol with a range of 0-50 mM during the differentiation-inducing process.

The test system of data set [7] is bone marrow-derived osteoclast. Description: Bone resorption-degradative potential of osteoclast on bone fragments (toluidine blue staining). It counts as cell-based, mouse. The protocol: To examine the effect of D-pinitol on degradative potential of osteoclast in the bone resorption process, fragment of tooth bone was added in 96-well plate and then bone marrow cells were cultured until 1.0×10^5 cells/200 μl. For the differentiation of osteoclast, 50 ng/ml of M-CSF and 200 ng/ml of sRANKL were added. D-pinitol was added to the media in a concentration-dependent manner and incubated for 4 days. Where the differentiation of osteoclast was observed after completing the culture, cells were removed in bone fragment and observed in microscope via 1% toluidine blue staining. To investigate the effect of D-pinitol on the bone resorption-degradative potential of osteoclast, cells were treated with D-pinitol in the range of 0-50 mM during the differentiation into osteoclast on bone fragments which were obtained from human teeth.

Data set [8] has as its system Raw264.7 cells. Description: Osteoclastogenesis of Raw264.7 cells, TRAP solution assay. The note with it: RankL. The class given is cell-based. The protocol:
Raw264.7 cells were cultured in α-MEM (α-minimal essential medium) containing 10% FBS (fetal bovine serum). In the experiment of examining osteoclastogenesis, cells were adjusted to 2.0×10^3 cells/200 μl on 96-well plate and incubated with 200 ng/ml of sRANKL. TRAP (tartrate resistant acid phophatase) staining and TRAP solution assay were carried out at forth day after culturing cells for 3 days with treatment of D-pinitol at concentrations of 1, 3.5, 7, 12.5, 25 and 50 mM respectively. Cells were fixed for TRAP staining and TRAP solution assay. TARP positive multinuclear (more than 3 nuclei) cells were counted as an osteoclast-like cell. Cells were observed using Leica DM IRM microscope. TRAP solution assay of TRAP positive cells were carried out according to the following method. Medium was removed, 100 μl of 10% formalin was added and incubated for 10 min at room temperature. After 100 μl of methanol/acetone was added, incubated for 1 min at room temperature, and then dried. TRAP substrate solution comprising a tablet of pNPP (p-nitrophenylphosphate) dissolved in 20 ml of TRAP buffer (pH 5.2) was added into and incubated for 20-30 min at 37° C. 100 μl of TRAP substrate solution was transferred to a new 96-well plate in which 50 μl of 1N NaOH was contained. Finally, OD (optical density) value was measured at 405 nm. […]

For data set [9], the system named is bone marrow-derived hematopoietic stem cells. Put plainly: Cytotoxicity of D-pinitol on bone marrow hematopoietic stem cells (CCK8). It counts as cell-based, mouse. As for the experimental part:
To investigate the cytotoxicity of D-pinitol to a bone marrow cell, bone marrow cells were adjusted to 1.0×10^5 cells/200 μl on 96-well plate and co-cultured with 50 ng/ml of M-CSF. Then, cultured cells were grown for 4 days while treating with D-pinitol at concentrations of 1, 3.5, 7, 12.5, 25 and 50 mM respectively. Cytotoxicity was measured using CCK8 kit (Cell Counting Kit-8, Dojindo, Japan). 10% CCK8 solution was added to culture solutions according to each culture time and incubated for 2 hrs at 37° C. After culturing, an absorbance was measured at 450 nm using Microplate reader (Bio-Rad).
To extract mouse bone marrow cells, thighbone and shinbone of male C57BL/6 mouse at 3-4 weeks of age were aseptically enucleated and their soft tissues were eliminated. Both end of long bone was cut in extracted bone tissues and then bone marrow cells were collected by injecting α-MEM/10% FBS into bone marrow cavity at one end using a 26G injection syringe. Collected bone marrow cells were subjected to 5 ng/ml of M-CSF and incubated for 16 hrs. Unattached cells on plate bottom were harvested.
The instant inventors examined the cytotoxicity of D-pinitol on hematopoietic stem cells. […] After that, the proliferation-induced cells were treated with D-pinitol at a range of 0-50 mM and the effect of D-pinitol on cell proliferation was determined by measuring CCK8 enzyme activity. […]

`COC1C(O)C(O)C(O)C(O)C1O` [D-pinitol]: the inhibition at 50000 µM was about 100% with Raw264.7 cells [1] (Mus musculus, RAW264.7, 50 mM, multinucleate cell count by TRAP staining) and about 100% in data set [4] (Mus musculus, Osteoclast, 50 mM, bone marrow-derived monocyte, read-out: inhibition of osteoclastogenesis). The “osteoclastogenesis (TRAP staining photographs)” value in the data set with Raw264.7 cells [1] (RankL 200 ng/ml, 4 days, increasing concentration up to 50 mM) is recorded as “significantly impaired”. In addition, in the data set with Raw264.7 cells [1] (RankL 200 ng/ml, increasing concentration of D-pinitol), the multinucleate cell number entry is “significantly decreased”. In addition, the Raw264.7 cell cytotoxicity entry in the data set with Raw264.7 cells [2] is reported as “not observed”. Besides, the “inhibitory effect on differentiation of bone marrow-derived osteoclast” value in [3] was “also observed”. The “number of TRAP-stained osteoclast” value in [4] (0-50 mM, RankL 200 ng/ml and M-CSF 50 ng/ml, 4 days) was “decreased in proportion to the concentration”. Moreover, the “concentration from which a remarkable decrease of multinucleate cell number was observed” value in data set [4] (TRAP staining count) turned out to be 25 mM. Also, the “differentiation of bone marrow-derived osteoclast” value in [5] is “remarkably inhibited”. In addition, the “cell number of multinucleated osteoclast” value in data set [6] (0-50 mM, increasing concentration) is recorded as “significantly decreased”. Moreover, in data set [6] (50 mM), the osteoclastogenesis result is listed as “clearly inhibited”. Also, the “bone resorption-degradative potential of osteoclast” value in data set [7] (0-50 mM, increasing concentration, bone fragments from human teeth) is reported as “remarkably decreased”; in [7] (not less than 25 mM), “dramatically decreased”. Further, in the data set on Raw264.7 cells [8], the “inhibitory activity in TRAP solution assay versus counting multinucleate cell number” value is recorded as “relatively weaker”. In addition, the “effect on CCK8 activity” value in [9] (0-50 mM, M-CSF 50 ng/ml) was “no effect”. For the same molecule, the “influence on proliferation of hematopoietic stem cells” value in data set [9] (not more than 50 mM) is “no influence”.
